# Data published in publication PMC8682738, “Constrained peptides mimic a viral suppressor of RNA silencing” (Nucleic Acids Research, 2021).
# Positions of bridges follow the written chain, without caps; N, C: chain ends. Non-standard residues stand in square brackets, D forms with d. Residues, ends and D or L forms follow the SMILES beside them. *: point of attachment. FITC = O=C1OC2(c3ccc(O)cc3Oc3cc(O)ccc32)c2ccc(NC(=S)*)cc21; R8 = C=CCCCCCC[C@@](C)(N)C(=O)O; S5 = C=CCCC[C@](C)(N)C(=O)O; AEEA = NCCOCCOCC(=O)O
# Tests used:
# [1] = system: yeast transfer RNAs (t-RNAs); assay: EMSA with transfer RNA; assay type: binding, baker's yeast; settings: fluorescein-labeled peptide 3 μM, t-RNA 9 μM
# Experimental: Electrophoretic mobility shift assays (EMSAs) were performed using a Bio-Rad Mini-Protean gel system paired with a direct current (DC) power source (PowerPac™ HC, Bio-Rad). Typically, 6 μl solutions containing ds RNA (c = 3 μM) and fluorescein-labeled peptide (c = 6 μM) were incubated in binding buffer (10 mM Tris (pH 8.0), 0.5 mM EDTA, 12.5% glycerol and 150 mM KCl) at 4°C for 1 h. After incubation, bound RNA was resolved from peptide-free RNA using 10% non-denaturing polyacrylamide gels at 120 V in running buffer (25 mM Tris (pH 8.0), 200 mM glycine, 20 mM NaCl) at 4°C for 1 h. Visualization of fluorescent gel-bound species was conducted using a Typhoon Trio + fluorescence scanner (GE Healthcare Life Sciences). For nucleic acid visualization, gels were stained using 2 μl of SYBR™ gold nucleic acid gel dye (Molecular Probes) in 20 ml of TAE buffer (40 mM Tris, 1 mM EDTA, 20 mM acetic acid) for 45 min at RT before being visualized using a FluorChem™ gel documentation system (Alpha Innotech). To assess B3 binding to different ds RNA sequences (Supplementary Figure S20), 6 μl solutions containing hairpin RNA (c = 1 μM) and fluorescein-labeled B3 (c = 2 μM) were incubated in binding buffer (TAE and 10% glycerol) at RT for 1 h, and then resolved using 15% non-denaturing polyacrylamide gels (acrylamide/bis-acrylamide (19:1) in TAE) at 150 V in running buffer (TAE) at 4°C for 1.5 h. […]
# miR-21 duplex = assay: Thermal denaturation of miR-21 duplex (CD melting); assay type: binding; settings: miR-21 2 μM, unlabeled peptide 4 μM
# Experimental: For each sample, 10 CD spectra were measured between λ = 200 and 350 nm with continuous scan mode (1 mdeg sensitivity, 1.0 nm resolution, 1.0 nm bandwidth, 2 s integration time, 100 nm·min^−1 scan rate). Obtained spectra were averaged and then subtracted from a reference buffer spectrum. CD data were normalized to oligonucleotide strand concentration using Formula (1):(1) where θ = observed ellipticity (mdeg), c = DNA strand concentration (mol·l^−1) and l = path length (cm).
# Melting temperature (Tm) determination was conducted using the same instrumentation and sample preparation, where ellipticity (θ = 267 nm) was measured by ramping the temperature from 15–90°C (4°C·min^−1 ramp, ±0.05°C equilibration tolerance, 6 s delay after equilibration). Data points were recorded every 0.5°C. Raw data was normalized as described above and Tm-values were determined using the CDpal program ([44]) before being plotted in Prism 5.0 (GraphPad).
# pre-miR-21 = assay: Pull-down of pre-miR-21 from K562 cells; assay type: cell-based, human; settings: biotinylated peptide 10 μM, streptavidin beads, qRT-PCR, triplicate
# Experimental: 2 × 10^6 K562 cells were incubated with N-terminally biotinylated peptides (c(peptide) = 10 μM, t = 2.5 h) for uptake on a rotating wheel at 37°C. The cells were extensively washed in PBS and lysed in lysis buffer (25 mM HEPES, pH 7.5, 150 mM NaCl, 0.05% IGEPAL CA-630, 1 mM EDTA) supplemented with 0.5 U/μl RNAse inhibitor (Superase-in, ThermoFisher). The lysate was cleared by centrifugation at 21 000 g at 4°C, an aliquot of the supernatant was removed and re-suspended in Trizol, while the remaining was incubated with streptavidin-coupled magnetic beads (Dynabeads M280, ThermoFisher) on a rotating wheel (2 h, 4°C). After magnetic separation and washing (3× in lysis buffer), the beads were re-suspended in 20 μl lysis buffer, re-suspended in Trizol (ThermoFisher), and 400 ng t-RNA was added per sample as a carrier. RNA was extracted from Trizol using the standard protocol and the qRT-PCR was performed according to a previously published protocol ([62]) using the primers h-miR21-3p-FW ([…]), h-miR21-3p-RV ([…]), h-miR21-5p-FW ([…]), h-miR21-5p-RV ([…]) in a CFX96 real-time machine (Bio-Rad). The relative enrichment was calculated as a ratio of copies in the immunoprecipitate over input normalized to the enrichment of the control peptide D1.
# [2] = system: K562 human leukemia cells; assay: Peptide uptake by flow cytometry; assay type: cell-based; settings: fluorescein-labeled peptide 1 μM, 90 min
# Experimental: 2 × 10^6 K562 cells were plated per well in 48-well plates in presence of fluorescein-labeled peptides (c = 1 μM, 0.5% DMSO) in a total volume of 300 μl. After 90 min, cells were treated with proteinase K (2 μg·ml^−1) for 10 min to remove extracellular peptides. Cells were extensively washed and total uptake of labeled peptide was measured by flow cytometry (Cytoflex, Beckman Coulter with the CytExpert software version 2.3). For each peptide, 20 000 events per sample were collected with >85% viable cells (forward/side scatter) that were considered for analysis using a 525/40 nm filter. DMSO was used as a control to distinguish general DMSO-related and peptide-specific effects. Each experiment was performed in triplicate.
Structure (SMILES),binding to yeast t-RNA mixture in EMSA [1],ΔTm of miR-21 duplex (miR-21 duplex),enrichment of pre-miR-21 relative to control peptide D1 (pre-miR-21),fold increase in uptake relative to wt33 [2],cellular uptake (in words) [2]
"CC(C)C[C@H](NC(=O)[C@]1(C)CCCC=CCCC[C@](C)(NC(=O)[C@H](CCC(=O)O)NC(=O)[C@H](CO)NC(=O)[C@@H]2CCCN2C(=O)[C@H](CO)NC(=O)[C@H](CCCCN)NC(=O)[C@H](Cc2c[nH]cn2)NC(=O)CNC(=O)[C@H](CCCNC(=N)N)NC(=O)[C@]2(C)CCCC=CCCC[C@](C)(NC(=O)[C@H](CCCCN)NC(=O)[C@H](Cc3c[nH]cn3)NC(=O)[C@H](CCCNC(=N)N)NC(=O)[C@H](CCCCN)NC(=O)[C@H](CCCNC(=N)N)NC(=O)[C@H](CCC(N)=O)NC(=O)[C@H](C)NC(=O)[C@H](CCC(N)=O)NC(=O)[C@H](CCCCN)NC(=O)[C@H](CCCCN)NC(=O)COCCOCCNC(=S)Nc3ccc4c(c3)C(=O)OC43c4ccc(O)cc4Oc4cc(O)ccc43)C(=O)N[C@@H](CC(N)=O)C(=O)N[C@@H](CCCNC(=N)N)C(=O)N[C@@H](CCCCN)C(=O)N2)C(=O)N[C@@H](CCCNC(=N)N)C(=O)N[C@@H](CCCNC(=N)N)C(=O)N[C@@H](CO)C(=O)N1)C(=O)N[C@@H](Cc1c[nH]c2ccccc12)C(=O)N[C@@H](Cc1c[nH]cn1)C(=O)N[C@@H](C)C(=O)N[C@@H](CCCNC(=N)N)C(N)=O [B3] ({FITC-AEEA}-KKQAQRKRHK[S5]NRK[S5]RGHKSPSE[S5]RRS[S5]LWHAR-NH2; staple 11-15, 24-28)",did not observe binding,> 10 °C,4 fold,–,–
"CC(C)C[C@@H]1NC(=O)[C@@](C)(NC(=O)[C@H](CO)NC(=O)[C@H](CCCNC(=N)N)NC(=O)[C@H](CCCNC(=N)N)NC(=O)[C@H](CCC(N)=O)NC(=O)[C@H](CCC(=O)O)NC(=O)[C@H](CO)NC(=O)[C@@H]2CCCN2C(=O)[C@H](CO)NC(=O)[C@H](CCCCN)NC(=O)[C@H](Cc2c[nH]cn2)NC(=O)CNC(=O)[C@H](CCCNC(=N)N)NC(=O)[C@H](CCC(=O)O)NC(=O)[C@H](CCCCN)NC(=O)[C@H](CCCNC(=N)N)NC(=O)[C@H](CC(N)=O)NC(=O)[C@]2(C)CCCC=CCCCCCC[C@@](C)(NC(=O)[C@H](CCC(N)=O)NC(=O)[C@H](CCCCN)NC(=O)[C@H](CCCCN)NC(=O)COCCOCCNC(=S)Nc3ccc4c(c3)C(=O)OC43c4ccc(O)cc4Oc4cc(O)ccc43)C(=O)N[C@@H](CCC(N)=O)C(=O)N[C@@H](CCCNC(=N)N)C(=O)N[C@@H](CCCCN)C(=O)N[C@@H](CCCNC(=N)N)C(=O)N[C@@H](Cc3c[nH]cn3)C(=O)N[C@@H](CCCCN)C(=O)N2)CCCC=CCCC[C@@](C)(C(=O)N[C@@H](CCCNC(=N)N)C(N)=O)NC(=O)[C@H](Cc2c[nH]cn2)NC(=O)[C@H](Cc2c[nH]c3ccccc23)NC1=O [C1] ({FITC-AEEA}-KKQ[R8]QRKRHK[S5]NRKERGHKSPSEQRRS[S5]LWH[S5]R-NH2; staple 4-11, 28-32)",did not observe binding,> 10 °C,did not show detectable pre-miR-21 enrichment,264 fold,–
"CC(C)C[C@@H]1NC(=O)[C@H](CCC(=O)O)NC(=O)[C@H](CO)NC(=O)[C@@](C)(NC(=O)[C@H](CCCNC(=N)N)NC(=O)[C@H](CCC(N)=O)NC(=O)[C@H](CCC(=O)O)NC(=O)[C@H](CO)NC(=O)[C@@H]2CCCN2C(=O)[C@H](CO)NC(=O)[C@H](CCCCN)NC(=O)[C@H](Cc2c[nH]cn2)NC(=O)[C@]2(C)CCCC=CCCCCCC[C@@](C)(NC(=O)[C@H](Cc3c[nH]cn3)NC(=O)[C@H](CCCNC(=N)N)NC(=O)[C@H](CCCCN)NC(=O)[C@H](CCCNC(=N)N)NC(=O)[C@H](CCC(N)=O)NC(=O)[C@H](C)NC(=O)[C@H](CCC(N)=O)NC(=O)[C@H](CCCCN)NC(=O)[C@H](CCCCN)NC(=O)COCCOCCNC(=S)Nc3ccc4c(c3)C(=O)OC43c4ccc(O)cc4Oc4cc(O)ccc43)C(=O)N[C@@H](CC(C)C)C(=O)N[C@@H](CC(N)=O)C(=O)N[C@@H](CCCNC(=N)N)C(=O)N[C@@H](CCCCN)C(=O)N[C@@H](CCC(=O)O)C(=O)N[C@@H](CCCNC(=N)N)C(=O)N2)CCCC=CCCC[C@@](C)(C(=O)N[C@@H](Cc2c[nH]cn2)C(=O)N[C@@H](C)C(=O)N[C@@H](CCCNC(=N)N)C(N)=O)NC1=O [D1] ({FITC-AEEA}-KKQAQRKRH[R8]LNRKER[S5]HKSPSEQR[S5]SEL[S5]HAR-NH2; staple 10-17, 26-30)",–,only showed a mild effect on duplex stability,–,–,considerably enhanced cellular uptake
